The text below walks through data of patent publication US20250339396A1 (COSMAS THERAPEUTICS DEVELOPMENT INC., priority 2021, published 2025).

For series [1] the following is noted: cited from earlier work.
A further series concerns neuropathic (SNI) rats. Description: Mechanical allodynia (von Frey, 50% paw withdrawal threshold) after spared nerve injury (SNI). It counts as in vivo, rat. The note with it: for withdrawal threshold over time vs. vehicle (two-way ANOVA, FIG. 1A): 0.5-8 h; for withdrawal threshold vs. vehicle, Bonferroni post-hoc p: after 1 hour; for AUC of withdrawal threshold vs. vehicle (FIG. 3B): p<0.01; for Area Under the Curve (AUC) of withdrawal threshold vs. vehicle, Bonferroni p (FIG. 2B) / withdrawal threshold over time vs. vehicle (two-way ANOVA, FIG. 2A): dose not given for prodrugs E, F; for withdrawal threshold over time vs. vehicle (two-way ANOVA, FIG. 2A): per os. Here is the method:
Experiments were performed in male Sprague-Dawley rats (body weight: 250-300 g; Charles River Laboratories, St. Constant, QC, Canada) and adult male C57BL mice (body weight: 25-30 g; inbred). All animals were housed in small groups at a constant temperature of 22° C., with food and water provided ad libitum, and maintained under a 12 h light/dark cycle (lights on at 7:00 AM; lights off at 7:00 PM). All experimental procedures were conducted in accordance with the guidelines of the Canadian Council on Animal Care, and the protocols were approved by the Animal Care Committee at McGill University.
The different prodrug compounds as synthesized in Example 2 were tested and compared with Gabapentin (150 mg/kg, purchased from Sigma Aldrich, US). Prodrug was dissolved in saline, water, or a vehicle composed of 40% PEG400 and 60% water. Gabapentin was dissolved in a vehicle composed of 40% PEG400 and 60% water. All drugs (doses see the procedure descriptions below) were administrated per os (gavage) through a curved feeding tube (20 G for rats and 22 G for mice) at the beginning of the experiment unless otherwise specified. The dose of prodrug was chosen based on its pharmacokinetic properties, and the doses of Gabapentin were chosen from literature (Lopez-Canul, Palazzo et al. 2015).
Spared nerve injury was performed according to the method of (Decosterd I and Woolf CJ, 2000), see also Lopez-Canul et al., 2015. Rats and mice were anesthetized with isoflurane. The sciatic nerve was exposed at mid-thigh level distal to the trifurcation and freed of connective tissue; the three peripheral branches (sural, common peroneal, and tibial nerves) of the sciatic nerve were exposed without stretching nerve structures. Both tibial and common peroneal nerves were ligated and transected together. Tactile allodynia was absent in healthy (pre-surgery) and sham rats, and the mechanical withdrawal threshold in rats before SNI (pre-surgery) or sham was very close to the cutoff of dynamic plantar aesthesiometer (30 g) (Ugo Basile, Varese, Italy).
On day 14 after surgery, individual rats were placed in a test chamber (clear plastic wire mesh-bottomed cage) and allowed to acclimatize for 30 to 40 minutes. Von Frey filaments (Stoelting, Wood Dale, IL) were used to measure the 50% paw withdrawal threshold using the up-and-down method reported by {Chaplan, 1994 #399}. […] Lifting of the paw indicated a positive response and prompted the use of the […], whereas absence of paw withdrawal after 5 seconds indicated a negative response and prompted the next filament of increasing weight. This paradigm continued for 4 more measurements after the initial change of the behavioral response or until 5 consecutive negative or 4 consecutive positive responses. Based on observations on normal, unoperated, and sham-operated rats, the cutoff value of 15 g was selected as the upper limit for testing because stiffer hairs tended to raise the entire limb rather than to buckle, substantially changing the nature of the stimulus. The resulting scores were used to calculate the 50% response threshold using the formula proposed by Dixon. Allodynia was considered to be present when paw withdrawal thresholds were <4 g, and drugs raising this threshold were considered antiallodynic {Lopez-Canul, 2015}. Accordingly, all nerve ligated rats were verified to be allodynic, responding to a stimulus of <4 g. Rats without mechanical allodynia were excluded. After the determination of the basal response, allodynia was assessed at baseline, 0.5, 1, 1.5, 2, 2.5, 3, 4, 5, 6, 7, and 8 hours post-administration for each treatment described below. Groups of 5 to 6 rats per treatment were used, with each animal being used for 1 treatment only. […]

The nature of series [2]: Oral bioavailability and brain penetrance of UCM765 and UCM924.
The conditions of series [3]: dose of 40 mg/kg; cited from earlier work.
For series [4] the following is noted: in vivo; cited from earlier work.

Read-outs that look alike come from different tables or passages of the source.

Take `COc1ccc2cccc(CCNC(C)=O)c2c1` [Agomelatine]: the bioavailability in series [1] (at the therapeutic oral dose) was below 5%.

On to `COc1ccc2[nH]cc(CCNC(C)=O)c2c1` [MLT, Melatonin], for which the half-life in series [1] (in vivo) is listed as below 30 min.

In the case of `CC(=O)N(CCN(c1ccc(F)cc1)c1cccc(Br)c1)COC(=O)C(C)(C)C` [Prodrug A, (N-(2-((3-bromophenyl)(4-fluorophenyl)amino)ethyl)acetamido) methyl pivalate], in the series with neuropathic (SNI) rats (50 mg/kg per os), the “Area Under the Curve (AUC) of withdrawal threshold vs. vehicle, Bonferroni p (FIG. 1B)” value was below 0.01; the “withdrawal threshold over time vs. vehicle (two-way ANOVA, FIG. 1A)” value is “significantly increased the withdrawal threshold”; the “withdrawal threshold vs. vehicle, Bonferroni post-hoc p” value was below 0.001.

In the case of `CCOC(=O)OCN(CCN(c1ccc(F)cc1)c1cccc(Br)c1)C(C)=O` [Prodrug B, (N-(2-((3-bromophenyl)(4-fluorophenyl)amino)ethyl)acetamido) methyl ethyl carbonate], in the series on neuropathic (SNI) rats (50 mg/kg per os), the “withdrawal threshold over time vs. vehicle (two-way ANOVA, FIG. 1A)” value is listed as “significantly increased the withdrawal threshold” and the “withdrawal threshold vs. vehicle, Bonferroni post-hoc p” value was below 0.0001.

As to `CC(=O)N(CCN(c1ccc(F)cc1)c1cccc(Br)c1)C(=O)OC(C)OC(=O)CN.Cl` (stereo not shown) [Prodrug C, 1-((acetyl(2-((3-bromophenyl)(4-fluorophenyl)amino)ethyl)carbamoyl)oxy)ethyl 2-aminoacetate hydrochloride], the “withdrawal threshold over time vs. vehicle (two-way ANOVA, FIG. 1A)” value with neuropathic (SNI) rats (50 mg/kg per os) is “significantly increased the withdrawal threshold”.

Turning to `CC(=O)N(CCN(c1ccc(F)cc1)c1cccc(Br)c1)C(=O)OCOC(=O)CN` [Prodrug D-2, ((acetyl(2-((3-bromophenyl)(4-fluorophenyl)amino)ethyl)carbamoyl)oxy)methyl 2-aminoacetate methane-sulfonate], in the series with neuropathic (SNI) rats (50 mg/kg), the “effect on withdrawal threshold in the SNI model (FIG. 3A)” value is reported as “not effective” and the “AUC of withdrawal threshold vs. vehicle (FIG. 3B)” value is recorded as “significant pro-nociceptive effect”. In addition, in the series with neuropathic (SNI) rats (100 mg/kg), the “effect on withdrawal threshold in the SNI model (FIG. 3A)” value is on record as “effective” and the “AUC of withdrawal threshold vs. vehicle (FIG. 3B)” value is reported as “modest, but significant anti-nociceptive effect”.

Regarding `CC(=O)N(CCN(c1ccc(F)cc1)c1cccc(Br)c1)C(=O)OCOC(=O)C1CCCN1.Cl` (stereo not shown) [Prodrug E, ((acetyl(2-((3-bromophenyl)(4-fluorophenyl)amino)ethyl)carbamoyl)oxy)methyl pyrrolidine-2-carboxylate hydrochloride], in the series with neuropathic (SNI) rats, the “Area Under the Curve (AUC) of withdrawal threshold vs. vehicle, Bonferroni p (FIG. 2B)” value is listed as below 0.05 and the “withdrawal threshold over time vs. vehicle (two-way ANOVA, FIG. 2A)” value is “different from vehicle”. Further, in the series on neuropathic (SNI) rats (hour 2, 4 and 5), the “withdrawal threshold vs. vehicle, post-hoc p (FIG. 2A)” value was below 0.05. In addition, in the series on neuropathic (SNI) rats (overall), the “withdrawal threshold, treatment vs. vehicle p (FIG. 2A)” value is given as 0.04.

For `CC(=O)N(CCN(c1ccc(F)cc1)c1cccc(Br)c1)C(=O)OCOC(=O)[C@@H](N)CC(C)C.Cl` [Prodrug F], the “withdrawal threshold vs. vehicle, Bonferroni post-hoc p (FIG. 2A)” value in the series on neuropathic (SNI) rats (after 5, 6 and 7 hours) is below 0.0001; in the series on neuropathic (SNI) rats (after 3 hours), 0.05. In addition, in the series with neuropathic (SNI) rats, the “Area Under the Curve (AUC) of withdrawal threshold vs. vehicle, Bonferroni p (FIG. 2B)” value was below 0.001. Moreover, in the series with neuropathic (SNI) rats, the “withdrawal threshold over time vs. vehicle (two-way ANOVA, FIG. 2A)” value was “significant difference”.

For `CCC(=O)NCC[C@@H]1CCc2ccc3c(c21)CCO3` [Ramelteon], the absolute oral bioavailability in series [1] (extensive first-pass metabolism) is recorded as 1.8%.

In turn, `COc1cccc(N(CCNC(C)=O)c2ccccc2)c1` [UCM765, N-{2-[(3-methoxyphenyl)-phenylamino]ethyl}acetamide] came in with a Kp in series [2] (brain) of 2.5. The same molecule registered a bioavailability in series [2] (in vivo, po) of 2%. For the same molecule, the “restorative sleep (NREM sleep)” value in series [3] is “facilitated restorative sleep”. Also, the anti-anxiety properties result in series [4] was “possesses anti-anxiety properties”.

As usually defined, the bioavailability is dose-corrected exposure relative to a reference, in per cent. In general, half-life refers to the time needed for the level to fall by half in the phase considered.
